Primed or numbered codes have the meaning given here. The star is where a group is joined. NH(CH2)4NH′ = not defined here; Boc = CC(C)(C)OC(=O)*

The values that follow come from patent publication US8546072B2, “Substrate for assaying β-glucan and/or endotoxin and assay method” (Wako Pure Chemical Industries, Ltd., priority 2008, dated 2013).

The test deals with clotting enzyme. The test is described as follows: Study on the reactivity of clotting enzyme by substrate (β-glucan-activated LAL fraction, HPLC of released fluorescent compound). The following applies: β-glucan-specific LAL fraction, 25 ng/mL standard β-glucan (lentinan), 37° C., FIG. 3. It is filed as biochemical, Limulus polyphemus. On the procedure: b) Aqueous solution of the peptide derivative of the present invention (hereinafter, sometimes abbreviated as substrate of the present invention): Boc-Thr-Gly-Arg-Gly-NH(CH2)4NH-Hilyte647 was dissolved in β-glucan-free water, and prepared to give 640 μM.
c) Aqueous substrate solution of known analogous substrate: Boc-Thr-Gly-Arg-NH-(CH2)4—NH-HiLyte647 obtained in Reference Example 1 was dissolved in β-glucan-free water, and prepared to give 640 μM.
d) Standard β-glucan solution: Intravenous lentinan preparation “Astellas” (Astellas Pharma Inc.) (1 mg) was dissolved in 0.1 M aqueous sodium hydroxide to give 50 μg/mL, and the solution was then diluted appropriately with β-glucan-free water, and used as the standard β-glucan solution. e) β-glucan specific LAL fraction solution: A fraction in which β-glucan-dependent clotting enzyme activity was detected was collected from the blood cell of American horseshoe crab (Limulus polyphemus) according to LAL extraction method described in pages 268 to 269 of “T. Kitagawa et al., Journal of Chromatography, 567 (1991) 267-273” and fractionation method by ion exchange chromatography, LAL fraction (a fraction corresponding to the fraction Nos. 7 to 20 in the above described literature) in 20 mM Tris-HCl buffer (pH 8.0) was obtained. […]

“Boc-Thr-Gly-Arg-NH(CH2)4NH-Hilyte647 [Reference Example 1]”: the “decomposition rate (area of released fluorescent compound versus total area)” value (after 2 hours of reaction) is at most 20%. “Boc-Thr-Gly-Arg-Gly-NH(CH2)4NH-Hilyte647 (Boc-TGRG-{NH(CH2)4NH′-HiLyte Fluor 647}) [tetrapeptide substrate with butanediamine spacer and HiLyte Fluor 647 dye]”: the “time in which the substrate was cleaved by the clotting enzyme” value (substrate 160 μM in reagent for reaction 1) is “about 20 minutes”.
